One test has as its system MOR. The note with it: brain homogenates, inverse agonists; ref Wang et al., 2004; cited from earlier work.
The target in another test is KOR (Mus musculus, UniProt P33534). Briefly: Antagonism of U69,593-stimulated [35S]GTPγS binding in WT striatum. Format: biochemical. (In general: Binding of GTPγS marks nucleotide exchange on a G protein.)

Consider two compounds from article PMC4655192 (Neuropharmacology, 2015).

`O=C1/C(=C/c2ccccc2)C[C@@]2(O)[C@H]3Cc4ccc(O)c5c4[C@@]2(CCN3CC2CC2)[C@H]1O5` [BNTX]: in the test with MOR, the “suppression of MOR basal signaling activity” value was “less than 10%”.

A word on the IC50: it is the concentration at which inhibition is half-maximal. For the compound `Oc1ccc2c3c1O[C@H]1c4[nH]c5c(c4C[C@@]4(O)[C@@H](C2)N(CC2CC2)CC[C@]314)C[C@@]1(O)[C@H]2Cc3ccc(O)c4c3[C@@]1(CCN2CC1CC1)[C@H]5O4` [NorBNI, Norbinaltorphimine], the half-inhibitory concentration (IC50) on KOR was determined as 6 ± 1.6 nM. At KOR (antagonist 10 μM, increasing concentrations of U69,593, WT), the “blockade of U69,593 stimulated G protein activation” value is “fully blocks”. Besides, the “% competition” value on KOR (vs 10 μM U69,593, WT striatum, n=3) worked out at 99 ± 7%.
